Laboratory results: US9199927B2, “Guanidinobenzoic acid compound” (Astellas Pharma Inc., priority 2011, dated 2015)
pIC50: −log10 of the molar value. Counter-ions that a name gives are not always drawn.

Key:
[1] = target: mouse trypsin (m-trypsin); assay: Inhibitory activity of trypsin enzyme (mouse trypsin purified from small intestine contents, BZiPAR fluorescent substrate); format: biochemical; conditions: mouse trypsin diluted 1/50, BZiPAR substrate, 30 minutes at room temperature
Description: (§1) 1. Inhibitory Activity of Trypsin Enzyme in Humans and Mice
(§2) In the experiment, human recombinant trypsin (r-h trypsin; manufactured by WAKO, cat. #206-17171) and mouse trypsin (m-trypsin; purified from the mouse small intestine contents by the present Company) were used.
The method to extract the trypsin from the mouse small intestine is shown below.
The small intestine contents and the gastrointestinal tract of 10 mice were suspended in PBS using Polytron and subjected to centrifugation at 15,000×g several times. The supernatant was mixed at 4° C. for 16 hours with a Benzamidine Sepharose 4 Fast Flow Resin (GE Healthcare: #17-5123-10). After washing the resin with PBS, m-trypsin was eluted with a glycine elution buffer (pH 3.0).
(§3) The outline of the measurement method is shown below.
(§4) The compound was dissolved in dimethyl sulfoxide (DMSO), and diluted to an arbitrary concentration (A). A was 100-fold diluted with a buffer (0.1 M Tris (pH 8.0), 0.15 M NaCl, 10 mM CaCl2, 0.05% Brij38) (B). The r-h trypsin was diluted with a buffer to 0.088 μg/mL, and the m-trypsin was diluted with a buffer to 1/50 (C). […] The substrate solution of a substrate for the enzyme reaction, BZiPAR, (Rhodamine Reference Substrate) was diluted with a buffer to 5 μmol/L (D). B; 5 μL, C; 5 μL, and D; 10 μL were added to a 384-plate, and incubated at room temperature for 30 minutes. The fluorescent signals were detected with Ex/Em=497/520 using Tecan Safire Fluorometer. […] Based on the obtained inhibitory rates, IC50 values (nM) were calculated from the non-linear regression. The test was carried out in the same manner, using camostat as a control compound.
(§5) Ex in the table represents the Example No. as denoted below.

[2] = target: human recombinant trypsin (r-h trypsin) (Homo sapiens (Human), UniProt P07477); assay: Inhibitory activity of trypsin enzyme (human recombinant trypsin, BZiPAR fluorescent substrate); format: biochemical; conditions: human recombinant trypsin 0.088 μg/mL, 30 minutes at room temperature
Protocol: as §1, §2, §3, §4, §5

[3] = system: ICR mice; assay: Increasing study of fecal protein concentration in mice; format: in vivo; conditions: Mus musculus, 5 mg/kg oral, feces collected 3 to 9 hours after, control = 1, read-out: protein increasing activity in feces, fold vs control
Protocol: 2. Increasing Study of Fecal Protein Concentration in Mice
For the experiment, 6-weeks old ICR mice (male) were used, and the experiment was carried out in five per group. After fasting the mice for 15 hours, the control group was forcibly orally administered with a 0.5% methyl cellulose (MC) solution, and the test drug group was forcibly orally administered (5 mg/kg) with a solution or suspension obtained by dissolving or suspending the compound in the 0.5% MC solution. The fasting was stopped immediately thereafter, free feeding (CE-2) started and then the feces were collected from after 3 hours to after 9 hours. All of the obtained feces were dissolved and suspended in 6 mL of distilled water, and centrifuged for 10 minutes at 3000 rpm. The protein concentration in the supernatant was measured by a Bradford method, and the amount of the protein in 1 g of feces was calculated by dividing the protein concentration in the feces by the total weight of feces. Further, the efficacy was investigated from the ratio to the control. For the compounds that were evaluated multiple times, the average values were calculated.
For some representative compounds, the protein increasing activities in feces are shown in Table 2, assuming a value for the control as 1. Ex in the table represents the Example No. as denoted below of the test compound.

SMILES | melting point [°C] | pIC50 [1] | pIC50 [2] | response vs control in vivo at 5 mg/kg [3] [%]
N=C(N)Nc1ccc(C(=O)Oc2ccc(CCC(=O)N(CC(=O)O)Cc3cccc(C(=O)O)c3)c(Cl)c2)cc1 (as salt: mesylate) [Example 3, 3-{[(3-{4-[(4-carbamimidamidobenzoyl)oxy]-2-chlorophenyl}propanoyl)(carboxymethyl)amino]methyl}benzoic acid mesylate] | 197 | – | – | –
N=C(N)Nc1ccc(C(=O)Oc2ccc3nc(C(=O)N(CC(=O)O)Cc4cccc(C(=O)O)c4)ccc3c2)cc1 [Example 4, 3-{[({6-[(4-carbamimidamidobenzoyl)oxy]quinolin-2-yl}carbonyl)(carboxymethyl)amino]methyl}benzoic acid] | 255 | – | – | –
CC(C(=O)N(CC(=O)O)Cc1cccc(C(=O)O)c1)c1ccc(OC(=O)c2ccc(NC(=N)N)cc2)cc1Cl (stereo not drawn) [Example 5, 3-{[(2-{4-[(4-carbamimidamidobenzoyl)oxy]-2-chlorophenyl}propanoyl)(carboxymethyl)amino]methyl}benzoic acid] | 208 | – | – | –
N=C(N)Nc1ccc(C(=O)Oc2ccc3nc(C(=O)N(CC(=O)O)Cc4cccc(C(=O)O)c4)ccc3c2)cc1 [Example 59] | – | 9.51 | 9.57 | 217
CN(C(=O)N(CC(=O)O)Cc1cccc(C(=O)O)c1)c1ccc(OC(=O)c2ccc(NC(=N)N)cc2)cc1Cl [Example 61] | – | 9.85 | 9.64 | 167
N=C(N)Nc1ccc(C(=O)Oc2ccc(CCC(=O)N(CC(=O)O)Cc3cc(C(=O)O)cc(C(=O)O)c3)c(Cl)c2)cc1 [Example 64] | – | 9.15 | 9.43 | 198
N=C(N)Nc1ccc(C(=O)Oc2ccc(CCC(=O)N(CC(=O)O)Cc3cccc(CC(=O)O)c3)c(Cl)c2)cc1 [Example 78] | – | 9.41 | 9.31 | 167
N=C(N)Nc1ccc(C(=O)Oc2ccc3nc(C(=O)N(CC(=O)O)Cc4csc(C(=O)O)c4)ccc3c2)cc1 [Example 80] | – | 9.52 | 9.68 | 189
CC(C)(Oc1ccc(C[C@H](NC(=O)Cc2ccc(OC(=O)c3ccc(NC(=N)N)cc3)cc2Cl)C(=O)O)cc1)C(=O)O [Example 95] | – | 9.19 | 9.18 | 188
CC(C)(Oc1ccc(C[C@H](NC(=O)CCc2ccc(OC(=O)c3ccc(NC(=N)N)cc3)cc2Cl)C(=O)O)cc1)C(=O)O [Example 96] | – | 9.34 | 9.66 | 202
C[C@H](C(=O)O)N(Cc1csc(C(=O)O)c1)C(=O)c1ccc2cc(OC(=O)c3ccc(NC(=N)N)cc3)ccc2n1 [Example 102] | – | 9.52 | 9.54 | 231
CN(C(=O)N(CC(=O)O)Cc1csc(C(=O)O)c1)c1ccc(OC(=O)c2ccc(NC(=N)N)cc2)cc1Cl [Example 111] | – | 9.36 | 9.27 | 201
